Measured values as given in patent US20240246960A1 (adMare Therapeutics Society, priority 2021, published 2024).
Where two headings read alike, the source gives them in different places.

Tests used:
[1] = Microsomal stability assay, mouse liver microsomes; conditions: for microsomal CLint at 0.1 uM: male, CD-1, mouse, liver microsomes, pH 7.4, Microsomal Stability Mouse Clint, 0.1 mg/mL microsomes, 0.1 uM compound
DNA-PK = target: T1, DNA-PK (Homo sapiens, UniProt P78527); test: DNA-PK Assay for Biochemical Enzymatic Inhibition (ADP Glo Kinase assay); conditions: Table 1
T1 construct: purchased Invitrogen PR9107A
Outline: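 Human DNA-PK (25 ng) preincubated 15 min with compounds (ten three-fold dilutions) in HEPES pH 7.5, MgCl2, KCl, calf thymus DNA buffer, then substrate 434.4 μM and ATP 64.4 μM (final) for 60 min at room temperature. ADP-Glo luminescence; percent inhibition fitted by four-parameter regression for IC50.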

[2] = Hepatocyte stability assay, human hepatocytes; assay type: in vitro ADME; conditions: for hepatocyte CLint at 1 uM: both sexes, human, cryopreserved hepatocytes, pH 7.3, 0.7 million cells per mL, 1 uM compound
Outline: (§1)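 Pooled cryopreserved hepatocytes (male CD-1 mouse, or mixed-gender human donors; ≥10 each) at 0.7 million viable cells/mL in Krebs-Henseleit buffer pH 7.3, with 1 uM compound (≤0.01% DMSO). Incubated up to 2 h at 37 °C/5% CO2, quenched with acetonitrile; parent compound followed by HPLC-MS/MS peak area.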

HCT116 spheroids = test: Spheroid + radiation colony forming cell survival assay (SF), HCT116; assay type: cell-based; conditions: 8 Gy
Experimental: (§2) Multicellular tumour spheroids determination of compound inhibition of pDNA-PK induction following radiation. Tumour spheroids were grown to approximately 0.5 mm in diameter and irradiated with 20 Gy in combination with inhibitor test compounds to determine their potency. Inhibitor concentration for 50% reduction in pDNA-PK induction (IC50) was determined via immunohistochemical staining in spheroid cryosections taken 2 hours following radiation. For cell survival endpoint 8 Gy radiation was used and 3 hours following radiation spheroids were dissociated, counted and plated for colony forming endpoint.
Spheroid+radiation colony forming cell survival assay (SF). Radiation 8 Gy. Drug: serial dilution 5 μM down to 10 nM (12 wells×2 repeat). Spheroids: 5-10 spheroids per well ([…]). HCT116. 5% O2 and 5% CO2. 96 well pate format for assay. Protocol: pre incubate 1 hour with drug, irradiate 8 Gy, post incubate 3 hrs with drug, dissociate spheroids and count cells and plate for colony forming assay. Endpoint: wait 4-7 days and count colonies. Analysis: determine EC50 concentration that increase cell kill by 50% over radiation alone.
(§3) Multicellular tumour spheroids were used to determine potency of test compounds in a 3D tissue environment using inhibition of pDNA-PK induction following radiation or cell survival as the endpoint. For the pDNA-PK endpoint HCT116 or FaDU tumour spheroids were grown to approximately 0.5 mm in diameter and irradiated with 20 Gy in combination with inhibitor test compounds to determine their potency. Experiments were carried out in 96 well plates containing 0.7 mls of MEM media containing 10% FBS and 10 mM glucose under 20% O2 & 5% CO2 at 37° C. Following dilution of compounds 1:1000 from DMSO stocks, compounds were serially diluted from 10 μM down to 3.5 nM and 5-10 spheroids added. 96 well plates were constantly stirred to avoid spheroids settling during the course of the experiment. The inhibitor concentration for 50% reduction in pDNA-PK induction (EC50) was determined via immunohistochemical staining in spheroid cryosections taken 2 hours following radiation using anti-pDNA-PK (ser 2056) and fixed immediately in formalin following sectioning. For cell survival endpoint 8 Gy radiation was used and, 3 hours following radiation, spheroids were dissociated, counted and plated for colony forming endpoint. Data presented in the table compound potency as EC50 [μM].

[3] = Microsomal stability assay, human liver microsomes; assay type: in vitro ADME; conditions: for microsomal CLint at 0.1 uM: both sexes, human, liver microsomes, pH 7.4, 0.1 mg/mL microsomes, 0.1 uM compound
Experimental: Samples were then mixed and centrifuged. Supernatants were used for HPLC-MS/MS analysis. […] Peak areas corresponding to the test compound were recorded.

[4] = Hepatocyte stability assay, mouse hepatocytes; assay type: in vitro ADME; conditions: for hepatocyte CLint at 1 uM: male, CD-1, mouse, cryopreserved hepatocytes, pH 7.3, 0.7 million cells per mL, 1 uM compound
Outline: as §1

[5] = target: T2, pDNA-PK ser2056 induction in FaDU spheroids (Homo sapiens, UniProt P78527); test: Multicellular tumour spheroid + radiation, pDNA-PK inhibition, FaDU; assay type: cell-based; conditions: 20 Gy
T2 construct: host or cells: FaDu
Experimental: as §2
Spheroid+radiation pDNA-PK. Radiation: 20 Gy. Drug: serial dilution 5 or 10 μM down to 3.5 nM (11 wells). Spheroids: 3-6 spheroids per well (300-500 μm diameter). 20% O2 and 5% CO2. 96 well plate format. Endpoint: fluorescent immunostain pDNA-PK ser2056 and image on microscope. Analysis: determine EC50 concentrations that decreases pDNA-PK induction […] after irradiation.
as §3

[6] = Example 8, spheroid, read-out: Cell line: HCT116 Colony forming endpoint Surviving Fraction EC50
[7] = Example 9 Study 2, read-out: Spheroid Cell line: HCT116 Colony forming endpoint Surviving Fraction EC50
[8] = Example 8, spheroid, read-out: Cell line: FaDU Immunohistochemical endpoint pDNA-PK inhibition EC50
[9] = Example 9 Study 2, 20% O2, read-out: Spheroid Cell line: FaDU Immunohistochemical endpoint pDNA-PK inhibition EC50

Microsomal Stability (mouse) % rem. 60 min [1] | microsomal CLint at 0.1 uM [1] | IC50 (DNA-PK) | Hepatocyte Stability (human) % rem. 120 min [2] | hepatocyte CLint at 1 uM [2] | Microsomal Stability (human) % rem. 60 min [3] | microsomal CLint at 0.1 uM [3] | Hepatocyte Stability (mouse) % rem. 120 min [4] | hepatocyte CLint at 1 uM [4] | EC50 [5, 8] | EC50 [5, 9] | Structure (SMILES) | EC50 (HCT116 spheroids; [6]) | EC50 (HCT116 spheroids; [7])
E (% remaining = 0-25%) | > 116 µL/min/mg | 0.0005 to 0.001 µM | F (% remaining = 25-50%) | > 8.2 µL/min/1e6 cells | F (% remaining = 25-50%) | > 116 µL/min/mg | F (% remaining = 25-50%) | > 8.2 µL/min/1e6 cells | 0.5 to 1 µM | 0.5 to 1 µM | c1cnc(N[C@H]2CC[C@@H](Oc3nc(N4CCOCC4)cc4ncccc34)CC2)nc1 [Compound 20a, N-((1s,4s)-4-((7-Morpholino-1,6-naphthyridin-5-yl)oxy)cyclohexyl)pyrimidin-2-amine] | 0.01 to 0.5 µM | 0.01 to 0.5 µM
G (% remaining = 50-75%) | < 116 µL/min/mg | < 0.0005 µM | H (% remaining = 75-100%) | < 8.2 µL/min/1e6 cells | H (% remaining = 75-100%) | < 116 µL/min/mg | G (% remaining = 50-75%) | < 8.2 µL/min/1e6 cells | 0.01 to 0.5 µM | 0.01 to 0.5 µM | O=C(N[C@H]1CC[C@@H](Oc2nc(N3CCOCC3)cc3ncccc23)CC1)c1ncccn1 [Compound 123, N-((1s,4s)-4-((7-Morpholino-1,6-naphthyridin-5-yl)oxy)cyclohexyl)pyrimidine-2-carboxamide] | 0.01 to 0.5 µM | 0.01 to 0.5 µM
